pIC50: −log10 of the molar value.
These compounds were tested on Mus musculus (assay: Maximum weight lose in influenza A infected mice when treated by the compound at a dose of 10 mg/kg/day b.i.d.).
Format: functional
`CC(=O)NC(C(=O)O)[C@@H]1CCC(=C2SCCCS2)C1` (mixture of isomers; form 1) was tested, and the Max weight loss was 3.1%.

These compounds were tested against Neuraminidase (Influenza B virus (strain B/Lee/1940), UniProt P03474).
Neuraminidase, sequence (P03474 whole entry): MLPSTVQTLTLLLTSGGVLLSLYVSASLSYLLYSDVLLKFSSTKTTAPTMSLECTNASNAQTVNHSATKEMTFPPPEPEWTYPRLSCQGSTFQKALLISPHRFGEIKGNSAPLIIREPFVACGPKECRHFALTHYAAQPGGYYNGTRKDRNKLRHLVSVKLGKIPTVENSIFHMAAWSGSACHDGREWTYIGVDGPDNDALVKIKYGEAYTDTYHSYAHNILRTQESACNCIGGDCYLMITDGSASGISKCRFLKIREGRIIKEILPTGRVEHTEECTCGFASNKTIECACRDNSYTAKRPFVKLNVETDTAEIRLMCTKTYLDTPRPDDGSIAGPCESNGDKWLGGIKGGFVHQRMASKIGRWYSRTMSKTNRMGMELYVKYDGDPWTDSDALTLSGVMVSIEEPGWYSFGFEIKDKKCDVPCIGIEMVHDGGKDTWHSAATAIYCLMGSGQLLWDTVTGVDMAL
Set-up: species or system Influenza B virus (strain: B/Lee/40)
In the case of `CCN(CCO)C(=O)C(NC(C)=O)[C@H]1CC(C(=O)O)C[C@@H]1N=C(N)N` (stereo partly specified), the pIC50 was less than 4.52.
`CCCCCCN(C)C(=O)C(NC(C)=O)[C@H]1CC(C(=O)O)C[C@@H]1N=C(N)N` (stereo partly specified) gave a pIC50 of less than 4.52.
`CCCC(C)NC(=O)C(NC(C)=O)[C@H]1CC(C(=O)O)C[C@@H]1N=C(N)N` (stereo partly specified) gave a pIC50 of 4.91.
With `CCNC(=O)C(NC(C)=O)[C@H]1CC(C(=O)O)C[C@@H]1N=C(N)N` (stereo partly specified) the pIC50 was 5.51.
Work on `CCCN(C)C(=O)C(NC(C)=O)[C@H]1CC(C(=O)O)C[C@@H]1N=C(N)N` (stereo partly specified) yielded a pIC50 of 5.21.
Compound `CCCCNC(=O)C(NC(C)=O)[C@H]1CC(C(=O)O)C[C@@H]1N=C(N)N` (stereo partly specified) has a pIC50 of 4.33.
In the case of `CCCCC(C)NC(=O)C(NC(C)=O)[C@H]1CC(C(=O)O)C[C@@H]1N=C(N)N` (stereo partly specified), the pIC50 was 4.43.
`CCC(CC)NC(=O)C(NC(C)=O)[C@H]1CC(C(=O)O)C[C@@H]1N=C(N)N` (stereo partly specified) gave a pIC50 of 5.52.
`CCCN(CC)C(=O)C(NC(C)=O)[C@H]1CC(C(=O)O)C[C@@H]1N=C(N)N` (stereo partly specified) showed a pIC50 of 5.15.
`CCN(CC)C(=O)C(NC(C)=O)[C@H]1C[C@@H](C(=O)O)C[C@@H]1N=C(N)N` (stereo partly specified) gave a pIC50 of 5.82.
Work on `CC(=O)NC(C(=O)N1CCOCC1)[C@H]1CC(C(=O)O)C[C@@H]1N=C(N)N` (stereo partly specified) yielded a pIC50 of 5.11.
With `CC(=O)NC(C(=O)N(C)CCc1ccccc1)[C@H]1CC(C(=O)O)C[C@@H]1N=C(N)N` (stereo partly specified) the pIC50 was 4.57.
With `CC(=O)NC(C(=O)N1CCSCC1)[C@H]1CC(C(=O)O)C[C@@H]1N=C(N)N` (stereo partly specified) the pIC50 was 4.54.
`CCC(COC)NC(=O)C(NC(C)=O)[C@H]1CC(C(=O)O)C[C@@H]1N=C(N)N` (stereo partly specified) was tested, and the pIC50 was 4.70.
`CC(=O)NC(C(=O)N1CCCCCC1)[C@H]1CC(C(=O)O)C[C@@H]1N=C(N)N` (stereo partly specified) showed a pIC50 of 4.60.
For `CC(=O)NC(C(=O)N1CCC1)[C@H]1CC(C(=O)O)C[C@@H]1N=C(N)N` (stereo partly specified), the pIC50 was 5.08.
`CCCN(CCC)C(=O)C(NC(C)=O)[C@H]1C[C@](O)(C(=O)O)C[C@@H]1N=C(N)N` (stereo in doubt) was tested, and the pIC50 was 4.48.
`C=CCN(C)C(=O)C(NC(C)=O)[C@H]1CC(C(=O)O)C[C@@H]1N=C(N)N` (stereo partly specified) gave a pIC50 of 4.93.
Compound `CC(=O)NC(C(=O)NC(C)CC(C)C)[C@H]1CC(C(=O)O)C[C@@H]1N=C(N)N` (stereo partly specified) has a pIC50 of 4.94.
`CC(=O)NC(C(=O)N1CCCCC1)[C@H]1CC(C(=O)O)C[C@@H]1N=C(N)N` (stereo partly specified) was tested, and the pIC50 was 5.16.
Work on `CC(=O)NC(C(=O)N1CCC(C)CC1)[C@H]1CC(C(=O)O)C[C@@H]1N=C(N)N` (stereo partly specified) yielded a pIC50 of 4.37.
`CC(=O)NC(C(=O)NCCc1ccccc1)[C@H]1CC(C(=O)O)C[C@@H]1N=C(N)N` (stereo partly specified) gave a pIC50 of 4.15.
`CCCN(CC1CC1)C(=O)C(NC(C)=O)[C@H]1CC(C(=O)O)C[C@@H]1N=C(N)N` (stereo partly specified) showed a pIC50 of 4.62.
`CCC(C)NC(=O)C(NC(C)=O)[C@H]1CC(C(=O)O)C[C@@H]1N=C(N)N` (stereo partly specified) showed a pIC50 of 4.78.
`CC(=O)NC(C(=O)NC(C)C)[C@H]1CC(C(=O)O)C[C@@H]1N=C(N)N` (stereo partly specified) showed a pIC50 of 5.34.
Compound `CC(=O)NC(C(=O)N1CCCCC1C)[C@H]1CC(C(=O)O)C[C@@H]1N=C(N)N` (stereo partly specified) has a pIC50 of 4.98.
`CC(=O)NC(C(=O)O)[C@@H]1CCC(=C2SCCCS2)C1` (mixture of isomers; form 2) gave a pIC50 of 5.52.
In the case of `CCN(Cc1ccccc1)C(=O)C(NC(C)=O)[C@H]1CC(C(=O)O)C[C@@H]1N=C(N)N` (stereo partly specified), the pIC50 was less than 4.52.
`CC(=O)NC(C(=O)N(C)C(C)C)[C@H]1CC(C(=O)O)C[C@@H]1N=C(N)N` (stereo partly specified) gave a pIC50 of 5.17.
`CC(=O)NC(C(=O)O)[C@@H]1CCC(=C2SCCCS2)C1` (single isomer, unassigned) showed a pIC50 of 5.07.
`CCCN(CCC)C(=O)C(NC(C)=O)[C@H]1CC(C(=O)O)C[C@@H]1N=C(N)N` (stereo partly specified) showed a pIC50 of 5.04.
`CC(=O)NC(C(=O)N1CCCC(C)C1)[C@H]1CC(C(=O)O)C[C@@H]1N=C(N)N` (stereo partly specified) was tested, and the pIC50 was less than 5.00.
`CCCC1CCCCN1C(=O)C(NC(C)=O)[C@H]1CC(C(=O)O)C[C@@H]1N=C(N)N` (stereo partly specified) showed a pIC50 of 4.84.
Work on `CC(=O)NC(C(=O)O)[C@@H]1CCC(=C2SCCCS2)C1` (mixture of isomers; form 1) yielded a pIC50 of 5.52.
Work on `CCN(CC)C(=O)C(NC(C)=O)[C@H]1CC(C(=O)O)C[C@@H]1N=C(N)N` (stereo partly specified) yielded a pIC50 of 5.52.
Work on `COCC(C)NC(=O)C(NC(C)=O)[C@H]1CC(C(=O)O)C[C@@H]1N=C(N)N` (stereo partly specified) yielded a pIC50 of 4.60.
Work on `CC(=O)NC(C(=O)NC(C)CCc1ccccc1)[C@H]1CC(C(=O)O)C[C@@H]1N=C(N)N` (stereo partly specified) yielded a pIC50 of 4.90.
With `C=CCNC(=O)C(NC(C)=O)[C@H]1CC(C(=O)O)C[C@@H]1N=C(N)N` (stereo partly specified) the pIC50 was 5.37.
`CCC1CCCCN1C(=O)C(NC(C)=O)[C@H]1CC(C(=O)O)C[C@@H]1N=C(N)N` (stereo partly specified) gave a pIC50 of 5.51.
For `CCCCC(CC)NC(=O)C(NC(C)=O)[C@H]1CC(C(=O)O)C[C@@H]1N=C(N)N` (stereo partly specified), the pIC50 was 4.80.
`CC(=O)NC(C(=O)N1CCCC1)[C@H]1CC(C(=O)O)C[C@@H]1N=C(N)N` (stereo partly specified) gave a pIC50 of 4.62.
Work on `CC(=O)NC(C(=O)N1CC(C)CC(C)C1)[C@H]1CC(C(=O)O)C[C@@H]1N=C(N)N` (stereo partly specified) yielded a pIC50 of less than 4.00.
For `CCCCN(C)C(=O)C(NC(C)=O)[C@H]1CC(C(=O)O)C[C@@H]1N=C(N)N` (stereo partly specified), the pIC50 was 4.74.

These compounds were tested against Neuraminidase (Influenza A virus (A/Puerto Rico/8/1934(H1N1)), UniProt P03468).
Neuraminidase (Influenza A virus (A/Puerto Rico/8/1934(H1N1)), UniProt P03468), sequence (P03468 whole entry): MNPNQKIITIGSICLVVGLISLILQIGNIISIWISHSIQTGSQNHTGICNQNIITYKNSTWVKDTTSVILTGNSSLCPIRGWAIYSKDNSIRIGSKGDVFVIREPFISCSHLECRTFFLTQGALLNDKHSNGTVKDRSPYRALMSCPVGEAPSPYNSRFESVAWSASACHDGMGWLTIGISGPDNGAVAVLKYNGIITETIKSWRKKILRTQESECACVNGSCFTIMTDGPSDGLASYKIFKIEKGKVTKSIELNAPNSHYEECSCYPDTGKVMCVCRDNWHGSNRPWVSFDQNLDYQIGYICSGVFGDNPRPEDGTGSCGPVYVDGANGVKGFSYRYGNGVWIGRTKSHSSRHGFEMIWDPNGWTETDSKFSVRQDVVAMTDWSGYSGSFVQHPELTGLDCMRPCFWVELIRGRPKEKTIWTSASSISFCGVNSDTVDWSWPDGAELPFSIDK
Compound `CCN(CC)C(=O)C(NC(C)=O)[C@H]1C[C@@H](C(=O)O)C[C@@H]1N=C(N)N` (stereo partly specified) has a pIC50 of 8.15.
`CCN(CC)C(=O)C(NC(C)=O)[C@H]1C[C@@](O)(C(=O)O)C[C@@H]1N=C(N)N` (stereo partly specified) showed a pIC50 of 5.80.
Compound `CC(=O)NC(C(=O)O)[C@@H]1CCC(=C2SCCCS2)C1` (stereo in doubt) has a pIC50 of 4.60.
`CCCN(CCC)C(=O)C(NC(C)=O)[C@H]1C[C@](O)(C(=O)O)C[C@@H]1N=C(N)N` (stereo in doubt) was tested, and the pIC50 was 5.31.
For `CCCN(CCC)C(=O)C(NC(C)=O)[C@H]1C[C@](O)(C(=O)O)C[C@@H]1N=C(N)N` (mixture of isomers), the pIC50 was 2.64.
`CCCN(CCC)C(=O)C(NC(C)=O)[C@H]1C[C@@](O)(C(=O)O)C[C@@H]1N=C(N)N` (stereo partly specified) was tested, and the pIC50 was 6.33.
Work on `CC(=O)NC(C(=O)O)[C@@H]1CCC(=C2SCCCS2)C1` (mixture of isomers; form 2) yielded a pIC50 of 7.22.
With `CC(=O)NC(C(=O)O)[C@@H]1CCC(=C2SCCCS2)C1` (single isomer, unassigned) the pIC50 was 7.37.
`CC(=O)NC(C(=O)O)[C@@H]1CCC(=C2SCCCS2)C1` (mixture of isomers; form 1) gave a pIC50 of 8.15.

What follows are compounds tested on Mus musculus (assay: Maximum weight lose in influenza A infected mice when treated by the compound at a dose of 1 mg/kg/day b.i.d.).
Format: functional
`CC(=O)NC(C(=O)O)[C@@H]1CCC(=C2SCCCS2)C1` (mixture of isomers; form 1) showed a Max weight loss of 8.7%.

What follows are compounds tested on Mus musculus (assay: Maximum weight lose in influenza A infected mice when treated by the compound at a dose of 0.1 mg/kg/day b.i.d.).
Format: functional
Work on `CC(=O)NC(C(=O)O)[C@@H]1CCC(=C2SCCCS2)C1` (mixture of isomers; form 1) yielded a Max weight loss of 12.7%.

The compounds below were run on Mus musculus (assay: Maximum weight lose in influenza A infected mice when treated by the compound at a dose of 0 mg/kg/day b.i.d.).
Format: functional
Work on `CC(=O)NC(C(=O)O)[C@@H]1CCC(=C2SCCCS2)C1` (mixture of isomers; form 1) yielded a Max weight loss of 27.5%.

Source: ChEMBL document CHEMBL1149138 (J Med Chem, 2004)
